Assays:
[1] = target: T1, OmpLA (Escherichia coli, UniProt P0A921); test: free fatty acid release by ANS displacement from BSA (fluorescence); type: biochemical; conditions: DMPG proteoliposomes, CaCl2 added to start, 30 °C
T1 construct: gene pldA; functional dimer, needs divalent cation

[2] = target: T2, PagP (Escherichia coli, UniProt P37001); test: colorimetric release of 4-nitrophenol, A410; type: biochemical; conditions: DMPG proteoliposomes, pH 8.5, 2 M urea, room temperature; substrate delivered with methyl-beta-cyclodextrin
T2 sequence (P37001 26-186): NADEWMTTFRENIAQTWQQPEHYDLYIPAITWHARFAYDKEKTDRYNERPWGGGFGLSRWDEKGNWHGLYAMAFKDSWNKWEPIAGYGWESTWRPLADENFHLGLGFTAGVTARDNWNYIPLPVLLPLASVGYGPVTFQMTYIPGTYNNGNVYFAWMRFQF

T1 sequence (P0A921 21-289): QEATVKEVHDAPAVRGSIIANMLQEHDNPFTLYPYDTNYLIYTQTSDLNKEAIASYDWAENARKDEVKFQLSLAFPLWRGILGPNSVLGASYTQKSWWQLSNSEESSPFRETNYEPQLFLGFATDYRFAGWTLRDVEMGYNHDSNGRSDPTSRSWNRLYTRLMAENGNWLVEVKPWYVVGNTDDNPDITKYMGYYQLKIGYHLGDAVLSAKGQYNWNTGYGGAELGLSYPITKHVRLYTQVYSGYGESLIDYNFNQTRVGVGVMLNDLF

Compound | free fatty acid release by ANS displacement from BSA (fluorescence) [1] | colorimetric release of 4-nitrophenol, A410 [2]
CCCCCCCCCCCCCC(=O)OC[C@H](COP(=O)(O)OCC(O)CO)OC(=O)CCCCCCCCCCCCC (some centres unmarked) [DMPG] | the phospholipase activity of OmpLA was measured in DMPG proteoliposomes | –
CCCCCCCCCCCCCCCC(=O)Oc1ccc([N+](=O)[O-])cc1 [palmitate-4-nitrophenol] | – | MβCD facilitates the rapid delivery of the pNP PagP substrate into liposome bilayers
